# Measurements: patent US20260337240A1, “CC16-DERIVED ANALOGS FOR THE TREATMENT OF INFLAMMATORY AND OBSTRUCTIVE LUNG DISEASES” (priority 2023, published 2026)
# Non-standard residues stand in square brackets, D forms with d. Residues, ends and D or L forms follow the SMILES beside them. Nle = CCCC[C@H](N)C(=O)O
# Experiments:
# [1] = tested on: human Rhinovirus in primary nasal cells; experiment: Peptidomimetic screen in human nasal cells: RV infectivity (RT-PCR); format: cell-based; settings: for RV infectivity / RV inhibition activity: RV MOI 0.1 for 4 hrs, then compound for 48 hrs, triplicate, RT-PCR (FIG. 10 top panel)
# Text: (§1) Top panel, RV infectivity; middle panel, IFN-lamda; bottom panel, TNF-alpha levels. All determined by RT-PCR.
# (§2) CC16-derived peptidomimetics provide protection against human Rhinovirus infection in airway epithelial cells. Preliminary studies were done in primary nasal cells grown at an ALI. Transwell cells were challenged with RV ([…] (MOI) 0.1) for 4 hrs, after which external RV was washed from the cell surface and test compounds added; uninfected baseline controls will be treated the same by pipetting media. Cells are allowed to incubate for an additional 48 hrs. Three readouts were used for analysis in this screen: RV infectivity, INF-lambda induction, and TNF-alpha induction. An optimal compound for this screening will have a reduction in RV infection, maintain high levels of INF-lambda, and have low levels of TNF-alpha.
# (§3) RV burden, INF-lambda, and TNF-alpha are assessed by RT-PCR. Those compounds moving forward will be tested in a dose-response to determine optimal concentrations needed for IC50.
# [2] = tested on: INF-lambda; experiment: Peptidomimetic screen in human nasal cells: INF-lambda induction (RT-PCR); format: cell-based; settings: 2.5 μM; RV MOI 0.1 for 4 hrs, then compound for 48 hrs; RT-PCR (FIG. 10 middle panel)
# Text: as §1, §2, §3
# [3] = tested on: RV in primary human nasal epithelial cells (HNECs); experiment: RV infection in primary human nasal epithelial cells (HNECs) at ALI, post-infection treatment (qPCR); format: cell-based; settings: 25 g/ml (so in the source); added after 4 hrs RV infection, 48 hrs incubation; non-asthma participants; p<0.01 by ANOVA (FIG. 6)
# Method: Cells were grown at ALI for 3 weeks and infected with RV for 4 hours, after which they were washed and allowed to incubate for 48 hours with or without rCC16 or C836. RV was determined by qPCR. Each dot is a technical replicate, ** p<0.01 by ANOVA.
# rCC16 and CC16-derived peptidomimetics reduce RV infection in human nasal cells. In order to test if rCC16 added exogenously could protect against RV viral infection, primary human nasal epithelial cells (HNECs) were grown from non-asthma participants at an air-liquid interface (ALI) for 21 days. On the day of infection, RV was added to the apical surface and allowed to incubate for 4 hrs, after which cells were gently washed with media, and either media alone, rCC16 (25 g/ml), or CC16-derived peptidomimetic, C836 (25 g/ml), were added and cells allowed to incubate for an additional 48 hrs. After harvest, RV infectivity was determined by PCR for RV.
# [4] = tested on: house dust mite (HDM) allergic airway disease; neutrophils in lavage fluid; experiment: Neutrophil recruitment into the lung in HDM model, IV treatment; format: in vivo, mice; settings: IV 2 hrs after each HDM challenge; lavage fluid 24 hrs after last HDM challenge; preliminary (FIG. 8 left)
# Method: (§4) Left panel, C836, was delivered via IV 2 hrs after each HDM challenge. Cells in the lavage fluid were measured 24 hrs after the last HDM challenge. Right panel, baseline lung function, without methacholine provocation, as assessed in the mice receiving C836 IV, 24 hrs after the last HDM challenge. ** p<0.01, **** p<0.0001 by ANOVA.
# Thus, a small peptidomimetic was designed based on the newly discovered LVD (leucine-valine-aspartic acid) integrin binding domain contained within the CC16 protein. The lead compound, C836, is a 17-mer containing the LVD integrin binding domain. […] Neutrophils, when present in the lungs of individuals with asthma, are typically associated with more severe and difficult to treat forms of the condition. In COPD, neutrophils are often highly destructive, releasing factors and enzymes that degrade the basement membrane and damage the delicate airway epithelium. Therefore, strategies to reduce neutrophil accumulation or activity in both asthma and COPD would provide significant benefits for overall lung health, potentially improving disease outcomes and reducing airway damage.
# [5] = tested on: lung function in HDM-treated mice; experiment: Baseline lung function (FEV0.2, invasive PFT) without methacholine provocation in HDM-treated mice; format: in vivo; settings: IV, 24 hrs after last HDM challenge (FIG. 8 right)
# Method: as §4
# Lung function tests are typically performed using methacholine provocation, which induces bronchoconstriction. However, the tests referenced here were conducted without provocation, meaning that when C836 was administered alongside an HDM challenge, it prevented the loss of lung function typically associated with HDM exposure. These tests were conducted at baseline, without the use of a bronchoconstrictor, similar to an asthma patient living a normal day without an attack.
# [6] = tested on: airway hyperresponsiveness (AHR); experiment: Airway hyperresponsiveness (AHR) to methacholine in HDM-exposed Cc16^−/− mice (flexiVent); format: in vivo; settings: oropharyngeal, approximately 1 hr after each HDM dose on days 0, 7, 14; methacholine 24 hrs after last HDM; p<0.05 at the highest dose (FIG. 9)
# Method: C836 was delivered to the airways 2 hrs after each HDM challenge. AHR to methacholine was assessed 24 hrs after the last HDM challenge. * p<0.05 at the highest dose.
# C836 reduces AHR in Cc16^−/− mice exposed to HDM. The activity of C836 was tested for its ability to provide protection in the allergic airway model induced by exposure to HDM. For this, CC16^−/− mice were used, and the C836 (or vehicle control) was delivered to the airway via the oropharyngeal method approximately 1 hr after each HDM dose on days 0, 7, and 14. Mice were assessed 24 hrs after the last HDM challenge by flexi Vent® and methacholine challenge.
# [7] = tested on: TNF-alpha; experiment: Peptidomimetic screen in human nasal cells: TNF-alpha induction (RT-PCR); format: cell-based; settings: 2.5 μM; RV MOI 0.1 for 4 hrs, then compound for 48 hrs; RT-PCR (FIG. 10 bottom panel)
# Text: as §1, §2, §3
# [8] = tested on: human Rhinovirus (RV; RVIB); experiment: RV burden in CC16^−/− mice given rCC16 (RT-PCR); format: in vivo; settings: female CC16^−/− mice; RV 4×10^7 PFU/50 μl intranasal; rCC16 given at time of infection; RT-PCR at 48 hrs; p<0.05 by t-test (FIG. 4)
# Method: RT-PCR at 48 hrs. * p<0.05 by t-test.
# rCC16 treatment decreases human Rhinovirus (RV; RVIB) burden in CC16^−/− mice: For these studies, female mice were infected with RV (4×10^7 plaque-forming unit (PFU)/50 μl) via intranasal instillation for 48 hrs, and mice were either given vehicle (saline) or rCC16 (human recombinant CC16) at the time of infection.
# [9] = tested on: airway hyperresponsiveness and respiratory infections; experiment: rCC16 delivered intravenously (retro-orbital) or oropharyngeally: airway hyperresponsiveness and respiratory infections; format: in vivo; settings: IV via retro-orbital injection or oropharyngeal delivery (both)
# Text: (§5) In the examples provided below, human recombinant CC16 (rCC16) was delivered either intravenously (IV) via retro-orbital injection or directly to the lungs through oropharyngeal delivery.
# [10] = tested on: leukocyte recruitment into the lungs; experiment: rCC16 delivered intravenously or oropharyngeally: leukocyte recruitment into the lungs; format: in vivo; settings: only intravenous delivery
# Text: as §5
# [11] = tested on: respiratory challenges; settings: direct delivery; cited from earlier work
molecule,measurement,setting,value
"CCCC[C@H](NC(=O)[C@H](CC(=O)O)NC(=O)[C@H](CCC(N)=O)NC(=O)[C@H](CC(=O)O)NC(C)=O)C(=O)N[C@@H](CCCNC(=N)N)C(=O)N[C@@H](CCC(=O)O)C(=O)N[C@@H](C)C(=O)NCC(=O)N[C@@H](C)C(=O)N[C@@H](CCC(N)=O)C(=O)N[C@@H](CC(C)C)C(=O)N[C@@H](CCCCN)C(=O)N[C@@H](CCCCN)C(=O)N[C@@H](CC(C)C)C(=O)N[C@H](C(=O)N[C@@H](CC(=O)O)C(=O)O)C(C)C [Compound 970, Ac-Asp-Gln-Asp-Nle-Arg-Glu-Ala-Gly-Ala-Gln-Leu-Lys-Lys-Leu-Val-Asp-OH] (Ac-DQD[Nle]REAGAQLKKLVD-OH)",RV infectivity / RV inhibition activity,[1]; 2.5 μM,had RV inhibition activity
"CCCC[C@H](NC(=O)[C@H](CC(=O)O)NC(=O)[C@H](CCC(N)=O)NC(=O)[C@H](CC(=O)O)NC(C)=O)C(=O)N[C@@H](CCCNC(=N)N)C(=O)N[C@@H](CCC(=O)O)C(=O)N[C@@H](C)C(=O)NCC(=O)N[C@@H](C)C(=O)N[C@@H](CCC(N)=O)C(=O)N[C@@H](CC(C)C)C(=O)N[C@@H](CCCCN)C(=O)N[C@@H](CCCCN)C(=O)N[C@@H](CC(C)C)C(=O)N[C@H](C(N)=O)C(C)C [Compound 971, Ac-Asp-Gln-Asp-Nle-Arg-Glu-Ala-Gly-Ala-Gln-Leu-Lys-Lys-Leu-Val-NH2] (Ac-DQD[Nle]REAGAQLKKLV-NH2)",RV infectivity / RV inhibition activity,[1]; 2.5 μM,had RV inhibition activity
"CCCC[C@H](NC(=O)[C@H](CC(=O)O)NC(=O)[C@H](CCC(N)=O)NC(C)=O)C(=O)N[C@@H](CCCNC(=N)N)C(=O)N[C@@H](CCC(=O)O)C(=O)N[C@@H](C)C(=O)NCC(=O)N[C@@H](C)C(=O)N[C@@H](CCC(N)=O)C(=O)N[C@@H](CC(C)C)C(=O)N[C@@H](CCCCN)C(=O)N[C@@H](CCCCN)C(=O)N[C@@H](CC(C)C)C(=O)N[C@H](C(=O)N[C@@H](CC(=O)O)C(=O)N[C@H](C(N)=O)[C@@H](C)O)C(C)C [Compound 972, Ac-Gln-Asp-Nle-Arg-Glu-Ala-Gly-Ala-Gln-Leu-Lys-Lys-Leu-Val-Asp-Thr-NH2] (Ac-QD[Nle]REAGAQLKKLVDT-NH2)",RV infectivity / RV inhibition activity,[1]; 2.5 μM,had RV inhibition activity
same,"overall outcome of the screen for the 3 factors (RV infectivity, INF-lambda, TNF-alpha)","[1]; 2.5 μM, RV-infected nasal cells",best candidate to move forward
same,INF-lambda levels,[2],maintain INF-lambda levels
"CCCC[C@H](NC(=O)[C@H](CC(=O)O)NC(=O)[C@H](CCC(N)=O)NC(=O)[C@H](CC(=O)O)NC(C)=O)C(=O)N[C@@H](CCCNC(=N)N)C(=O)N[C@@H](CCC(=O)O)C(=O)N[C@@H](C)C(=O)NCC(=O)N[C@@H](C)C(=O)N[C@@H](CCC(N)=O)C(=O)N[C@@H](CC(C)C)C(=O)N[C@@H](CCCCN)C(=O)N[C@@H](CCCCN)C(=O)N[C@@H](CC(C)C)C(=O)N[C@H](C(=O)N[C@@H](CC(=O)O)C(=O)N[C@H](C(N)=O)[C@@H](C)O)C(C)C [Compound C836, DQD-Nle-REAGAQLKKLVDT] (Ac-DQD[Nle]REAGAQLKKLVDT-NH2)",reduction of RV infection in human nasal cells,[3],approximately 80%
same,neutrophils recruited into the lung during HDM challenge,[4],fewer neutrophils are recruited into the lung
same,loss of lung function as measured by FEV0.2,[5],protective from loss of lung function
same,airway hyperresponsiveness (AHR) compared to HDM-treated given vehicle,[6],significantly lower airway hyperresponsiveness (AHR)
same,RV infectivity / RV inhibition activity,[1]; 2.5 μM,have activity in reducing RV infectivity
Ac-Nle-Arg-Glu-Ala-Gly-Ala-Gln-Leu-Lys-Lys-Leu-Val-Asp-Thr-NH2 (Ac-[Nle]REAGAQLKKLVDT-NH2; SMILES CCCC[C@H](NC(C)=O)C(=O)N[C@@H](CCCNC(=N)N)C(=O)N[C@@H](CCC(=O)O)C(=O)N[C@@H](C)C(=O)NCC(=O)N[C@@H](C)C(=O)N[C@@H](CCC(N)=O)C(=O)N[C@@H](CC(C)C)C(=O)N[C@@H](CCCCN)C(=O)N[C@@H](CCCCN)C(=O)N[C@@H](CC(C)C)C(=O)N[C@H](C(=O)N[C@@H](CC(=O)O)C(=O)N[C@H](C(N)=O)[C@@H](C)O)C(C)C) [Compound 974],RV infectivity / RV inhibition activity,[1]; 2.5 μM,had RV inhibition activity
same,INF-lambda levels,[2],maintain INF-lambda levels
same,TNF-alpha levels,[7],has a spike in TNF-alpha
"rCC16: human recombinant CC16 (club cell secretory protein) (protein, UniProt P11684 22-91, looked up) Uteroglobin: EICPSFQRVIETLLMDTPSSYEAAMELFSPDQDMREAGAQLKKLVDTLPQKPRESIIKLMEKIAQSSLCN",RV burden compared to vehicle-treated mice,[8],significant reduction in RV
same,reduction of RV infection in human nasal cells,[3],approximately 80%
same,IC50,"[1]; rCC16, RV infection of nasal cells, read-out: dose found to be optimal to inhibit 50% of infection",2500 nM
same,protection against airway hyperresponsiveness and respiratory infections,[9],effective in providing protection
same,leukocyte recruitment into the lungs,[10],reduce leukocyte recruitment into the lungs
same,protection during respiratory challenges,[11],protective
"rCC16 from R&D: standard control, rCC16 from R&D (protein, UniProt P11684 22-91, looked up) Uteroglobin: EICPSFQRVIETLLMDTPSSYEAAMELFSPDQDMREAGAQLKKLVDTLPQKPRESIIKLMEKIAQSSLCN",RV infectivity / RV inhibition activity,[1]; 2.5 μM,have activity in reducing RV infectivity
"rCC16 made at UA (MJ): standard control, rCC16 made at UA (MJ) (protein, UniProt P11684 22-91, looked up) Uteroglobin: EICPSFQRVIETLLMDTPSSYEAAMELFSPDQDMREAGAQLKKLVDTLPQKPRESIIKLMEKIAQSSLCN",RV infectivity / RV inhibition activity,[1]; 2.5 μM,have activity in reducing RV infectivity
